Laboratory results reported in ChEMBL document CHEMBL4507278 (2021).

How the values were obtained:
Conditions in all cases: Compound concentration 1000.0 nM
[1] = tested on: Tyrosine-protein kinase ABL1 (Homo sapiens), P00519 [F317I]
[2] = target: Myosin-IIIa (Homo sapiens) (UniProt Q8NEV4)
[3] = target: Dual specificity mitogen-activated protein kinase kinase 6 (Homo sapiens) (UniProt P52564)
[4] = target: Serine/threonine-protein kinase 38-like (Homo sapiens) (UniProt Q9Y2H1)
[5] = target: Serine/threonine-protein kinase MRCK alpha (Homo sapiens) (UniProt Q5VT25)
[6] = tested on: Tyrosine-protein kinase ABL1 (Homo sapiens), P00519 [Q252H]
[7] = target: Serine/threonine-protein kinase pim-1 (Homo sapiens) (UniProt P11309)
[8] = target: Casein kinase I isoform alpha-like (Homo sapiens) (UniProt Q8N752)
[9] = target: G protein-coupled receptor kinase 3 (Homo sapiens) (UniProt P35626)
[10] = target: Mitogen-activated protein kinase kinase kinase 12 (Homo sapiens) (UniProt Q12852)
[11] = target: Testis-specific serine/threonine-protein kinase 1 (Homo sapiens) (UniProt Q9BXA7)
[12] = target: Mitogen-activated protein kinase kinase kinase kinase 5 (Homo sapiens) (UniProt Q9Y4K4)
[13] = tested on: Epidermal growth factor receptor (Homo sapiens), P00533 [T790M]
[14] = target: Dual specificity mitogen-activated protein kinase kinase 1 (Homo sapiens) (UniProt Q02750)
[15] = target: Receptor-interacting serine/threonine-protein kinase 1 (Homo sapiens) (UniProt Q13546)
[16] = target: Insulin receptor-related protein (Homo sapiens) (UniProt P14616)
[17] = target: Serine/threonine-protein kinase LATS2 (Homo sapiens) (UniProt Q9NRM7)
[18] = target: Serine/threonine-protein kinase Sgk1 (Homo sapiens) (UniProt O00141)
[19] = target: MAP kinase-activated protein kinase 2 (Homo sapiens) (UniProt P49137)
Chain of MAP kinase-activated protein kinase 2 (Homo sapiens) (P49137 whole entry, looked up): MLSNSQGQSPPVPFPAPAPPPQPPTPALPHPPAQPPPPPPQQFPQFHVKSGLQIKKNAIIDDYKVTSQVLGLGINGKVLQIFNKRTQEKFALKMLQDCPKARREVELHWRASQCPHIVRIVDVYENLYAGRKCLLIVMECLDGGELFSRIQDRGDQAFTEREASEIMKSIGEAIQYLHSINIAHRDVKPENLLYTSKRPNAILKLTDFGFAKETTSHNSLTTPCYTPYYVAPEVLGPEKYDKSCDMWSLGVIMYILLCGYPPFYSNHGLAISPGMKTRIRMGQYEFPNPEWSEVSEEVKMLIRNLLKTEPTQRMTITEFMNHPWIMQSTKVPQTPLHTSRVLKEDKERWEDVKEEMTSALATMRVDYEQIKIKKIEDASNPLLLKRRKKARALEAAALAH

[20] = target: Tyrosine-protein kinase Mer (Homo sapiens) (UniProt Q12866)
Chain of Tyrosine-protein kinase Mer (Homo sapiens) (Q12866 whole entry): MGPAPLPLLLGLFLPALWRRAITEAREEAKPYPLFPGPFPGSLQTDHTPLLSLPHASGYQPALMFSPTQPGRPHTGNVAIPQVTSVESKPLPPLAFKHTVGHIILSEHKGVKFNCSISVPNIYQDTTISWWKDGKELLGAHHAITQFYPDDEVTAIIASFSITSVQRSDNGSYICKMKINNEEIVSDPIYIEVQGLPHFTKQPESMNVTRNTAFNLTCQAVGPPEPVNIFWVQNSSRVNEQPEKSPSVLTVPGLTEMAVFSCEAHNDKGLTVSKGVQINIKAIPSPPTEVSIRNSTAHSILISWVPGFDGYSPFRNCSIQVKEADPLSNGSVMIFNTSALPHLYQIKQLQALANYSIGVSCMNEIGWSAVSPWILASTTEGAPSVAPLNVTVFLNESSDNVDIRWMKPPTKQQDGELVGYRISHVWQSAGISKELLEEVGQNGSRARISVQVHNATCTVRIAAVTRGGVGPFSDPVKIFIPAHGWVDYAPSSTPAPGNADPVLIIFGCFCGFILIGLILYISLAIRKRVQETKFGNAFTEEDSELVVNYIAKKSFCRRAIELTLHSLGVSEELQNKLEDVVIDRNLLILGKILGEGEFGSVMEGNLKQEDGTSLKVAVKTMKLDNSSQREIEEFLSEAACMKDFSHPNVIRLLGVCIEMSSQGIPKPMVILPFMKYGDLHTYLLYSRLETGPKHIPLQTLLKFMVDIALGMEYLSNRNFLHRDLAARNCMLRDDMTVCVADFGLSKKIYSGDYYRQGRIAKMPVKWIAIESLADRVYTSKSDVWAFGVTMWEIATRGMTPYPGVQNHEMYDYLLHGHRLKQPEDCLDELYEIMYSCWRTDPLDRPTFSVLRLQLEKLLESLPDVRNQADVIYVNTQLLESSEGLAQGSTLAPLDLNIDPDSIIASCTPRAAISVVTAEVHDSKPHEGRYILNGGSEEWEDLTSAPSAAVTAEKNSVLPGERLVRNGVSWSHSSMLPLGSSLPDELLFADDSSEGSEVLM

[21] = tested on: ALK tyrosine kinase receptor (Homo sapiens), Q9UM73 [C1156Y]
[22] = target: Serine/threonine-protein kinase WNK4 (Homo sapiens) (UniProt Q96J92)
[23] = target: Tyrosine-protein kinase Srms (Homo sapiens) (UniProt Q9H3Y6)
Chain of Tyrosine-protein kinase Srms (Homo sapiens) (Q9H3Y6 whole entry): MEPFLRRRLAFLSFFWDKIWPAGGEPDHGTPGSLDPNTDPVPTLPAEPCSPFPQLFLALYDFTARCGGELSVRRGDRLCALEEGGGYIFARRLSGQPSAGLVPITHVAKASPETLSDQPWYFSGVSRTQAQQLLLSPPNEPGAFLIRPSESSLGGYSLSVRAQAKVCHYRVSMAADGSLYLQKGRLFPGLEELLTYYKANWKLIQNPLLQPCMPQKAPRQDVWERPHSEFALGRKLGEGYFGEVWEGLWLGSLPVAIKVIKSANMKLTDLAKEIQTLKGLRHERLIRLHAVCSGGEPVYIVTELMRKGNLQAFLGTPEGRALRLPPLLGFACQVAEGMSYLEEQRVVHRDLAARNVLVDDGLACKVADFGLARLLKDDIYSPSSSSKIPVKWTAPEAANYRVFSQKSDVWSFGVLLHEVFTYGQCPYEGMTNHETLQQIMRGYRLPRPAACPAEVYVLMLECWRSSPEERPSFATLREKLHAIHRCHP

[24] = target: Receptor-interacting serine/threonine-protein kinase 4 (Homo sapiens) (UniProt P57078)
Chain of Receptor-interacting serine/threonine-protein kinase 4 (Homo sapiens) (P57078 whole entry): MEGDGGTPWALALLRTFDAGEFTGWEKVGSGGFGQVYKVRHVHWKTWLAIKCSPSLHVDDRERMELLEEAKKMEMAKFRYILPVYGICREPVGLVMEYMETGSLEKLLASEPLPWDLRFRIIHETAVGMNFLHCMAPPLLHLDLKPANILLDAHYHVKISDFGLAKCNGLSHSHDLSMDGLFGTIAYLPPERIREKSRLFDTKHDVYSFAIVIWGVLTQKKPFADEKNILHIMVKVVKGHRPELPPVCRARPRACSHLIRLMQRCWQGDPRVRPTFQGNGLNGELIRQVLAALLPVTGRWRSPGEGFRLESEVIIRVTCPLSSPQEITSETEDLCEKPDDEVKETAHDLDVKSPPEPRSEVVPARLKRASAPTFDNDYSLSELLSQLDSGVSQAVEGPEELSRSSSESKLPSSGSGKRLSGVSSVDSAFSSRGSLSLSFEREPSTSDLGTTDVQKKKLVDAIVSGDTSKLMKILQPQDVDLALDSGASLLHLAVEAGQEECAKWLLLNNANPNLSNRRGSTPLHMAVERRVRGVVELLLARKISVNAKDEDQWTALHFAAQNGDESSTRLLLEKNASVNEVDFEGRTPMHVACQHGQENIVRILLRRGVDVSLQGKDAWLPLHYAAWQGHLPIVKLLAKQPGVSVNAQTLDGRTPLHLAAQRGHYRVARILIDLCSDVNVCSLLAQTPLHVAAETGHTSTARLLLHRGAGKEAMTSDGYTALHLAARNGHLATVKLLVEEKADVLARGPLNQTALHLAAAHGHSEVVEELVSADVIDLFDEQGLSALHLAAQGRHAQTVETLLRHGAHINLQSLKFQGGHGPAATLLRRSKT

[25] = target: Bone morphogenetic protein receptor type-2 (Homo sapiens) (UniProt Q13873)
[26] = target: Serine/threonine-protein kinase LATS1 (Homo sapiens) (UniProt O95835)
[27] = target: Serine/threonine-protein kinase pim-3 (Homo sapiens) (UniProt Q86V86)
[28] = tested on: Phosphatidylinositol 4,5-bisphosphate 3-kinase catalytic subunit alpha isoform (Homo sapiens), P42336 [C420R]
[29] = tested on: Tyrosine-protein kinase ABL1 (Homo sapiens), P00519 [T315I]
[30] = target: Ephrin type-A receptor 5 (Homo sapiens) (UniProt P54756)
[31] = target: Ephrin type-A receptor 2 (Homo sapiens) (UniProt P29317)
[32] = target: Serine/threonine-protein kinase Nek5 (Homo sapiens) (UniProt Q6P3R8)
Chain of Serine/threonine-protein kinase Nek5 (Homo sapiens) (Q6P3R8 whole entry): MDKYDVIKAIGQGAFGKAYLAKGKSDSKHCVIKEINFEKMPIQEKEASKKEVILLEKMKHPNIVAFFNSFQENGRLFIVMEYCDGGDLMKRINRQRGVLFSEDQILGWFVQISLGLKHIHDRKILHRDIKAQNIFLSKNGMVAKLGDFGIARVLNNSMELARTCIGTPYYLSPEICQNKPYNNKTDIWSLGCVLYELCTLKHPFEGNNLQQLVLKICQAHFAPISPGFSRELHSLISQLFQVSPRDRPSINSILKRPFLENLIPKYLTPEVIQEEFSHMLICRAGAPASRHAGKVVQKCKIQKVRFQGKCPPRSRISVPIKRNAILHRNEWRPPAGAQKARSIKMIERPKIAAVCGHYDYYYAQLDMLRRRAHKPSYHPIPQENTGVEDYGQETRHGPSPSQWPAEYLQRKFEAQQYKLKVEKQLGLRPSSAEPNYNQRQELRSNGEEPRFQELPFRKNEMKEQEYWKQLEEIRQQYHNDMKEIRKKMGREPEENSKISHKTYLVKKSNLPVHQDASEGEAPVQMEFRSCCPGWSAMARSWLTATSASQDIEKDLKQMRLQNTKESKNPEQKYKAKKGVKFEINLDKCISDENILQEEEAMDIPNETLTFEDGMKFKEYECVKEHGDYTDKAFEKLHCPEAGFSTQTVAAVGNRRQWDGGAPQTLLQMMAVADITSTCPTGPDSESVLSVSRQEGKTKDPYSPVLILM

[33] = target: Death-associated protein kinase 3 (Homo sapiens) (UniProt O43293)
[34] = target: Mast/stem cell growth factor receptor Kit (Homo sapiens) (UniProt P10721)
[35] = target: Tyrosine-protein kinase Blk (Homo sapiens) (UniProt P51451)
Chain of Tyrosine-protein kinase Blk (Homo sapiens) (P51451 2-505 limits assumed): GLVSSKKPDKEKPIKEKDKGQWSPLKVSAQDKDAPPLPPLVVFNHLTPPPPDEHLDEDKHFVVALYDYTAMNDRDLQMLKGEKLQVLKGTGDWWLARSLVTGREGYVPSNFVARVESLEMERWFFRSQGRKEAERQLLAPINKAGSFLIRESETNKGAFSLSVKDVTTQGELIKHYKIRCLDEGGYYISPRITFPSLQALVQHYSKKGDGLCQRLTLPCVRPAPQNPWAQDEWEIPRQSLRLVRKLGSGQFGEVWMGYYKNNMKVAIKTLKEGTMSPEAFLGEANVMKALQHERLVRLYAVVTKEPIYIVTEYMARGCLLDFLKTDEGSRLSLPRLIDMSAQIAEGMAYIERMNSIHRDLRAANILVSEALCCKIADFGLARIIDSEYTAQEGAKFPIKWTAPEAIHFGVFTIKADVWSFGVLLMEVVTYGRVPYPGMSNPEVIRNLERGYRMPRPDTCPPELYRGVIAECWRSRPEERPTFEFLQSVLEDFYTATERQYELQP

[36] = target: Serine/threonine-protein kinase TBK1 (Homo sapiens) (UniProt Q9UHD2)
[37] = target: Serine/threonine-protein kinase RIO1 (Homo sapiens) (UniProt Q9BRS2)
[38] = target: Mitogen-activated protein kinase 14 (Homo sapiens) (UniProt Q16539)
[39] = target: Proto-oncogene tyrosine-protein kinase receptor Ret (Homo sapiens) (UniProt P07949)
[40] = target: Mitogen-activated protein kinase kinase kinase 13 (Homo sapiens) (UniProt O43283)
Chain of Mitogen-activated protein kinase kinase kinase 13 (Homo sapiens) (O43283 whole entry): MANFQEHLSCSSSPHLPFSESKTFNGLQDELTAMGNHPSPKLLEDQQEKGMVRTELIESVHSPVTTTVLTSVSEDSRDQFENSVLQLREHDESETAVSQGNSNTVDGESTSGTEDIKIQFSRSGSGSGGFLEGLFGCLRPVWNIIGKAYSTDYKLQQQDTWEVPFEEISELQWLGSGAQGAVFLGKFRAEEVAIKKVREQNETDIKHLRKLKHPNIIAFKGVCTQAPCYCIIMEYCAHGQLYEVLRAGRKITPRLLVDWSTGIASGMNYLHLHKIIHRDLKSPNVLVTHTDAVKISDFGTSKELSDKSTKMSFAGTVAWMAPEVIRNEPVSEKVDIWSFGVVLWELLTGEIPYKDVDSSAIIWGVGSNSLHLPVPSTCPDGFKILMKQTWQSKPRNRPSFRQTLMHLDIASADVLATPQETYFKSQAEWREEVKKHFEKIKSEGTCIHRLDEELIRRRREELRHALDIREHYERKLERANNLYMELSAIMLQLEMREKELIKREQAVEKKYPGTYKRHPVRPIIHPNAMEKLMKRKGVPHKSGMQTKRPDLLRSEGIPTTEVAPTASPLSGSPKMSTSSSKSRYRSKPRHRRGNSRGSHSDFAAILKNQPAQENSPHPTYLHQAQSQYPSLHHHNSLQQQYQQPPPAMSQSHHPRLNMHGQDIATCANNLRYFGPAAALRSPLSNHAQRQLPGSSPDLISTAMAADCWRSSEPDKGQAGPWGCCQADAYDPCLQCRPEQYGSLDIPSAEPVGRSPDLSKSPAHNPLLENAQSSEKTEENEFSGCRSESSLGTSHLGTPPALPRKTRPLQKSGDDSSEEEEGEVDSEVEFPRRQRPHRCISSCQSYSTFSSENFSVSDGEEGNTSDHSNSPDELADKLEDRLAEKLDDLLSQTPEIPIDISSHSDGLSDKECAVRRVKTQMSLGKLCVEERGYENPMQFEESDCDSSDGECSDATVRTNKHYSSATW

[41] = target: Cyclin-dependent kinase 5 (Homo sapiens) (UniProt Q00535)
[42] = target: Non-receptor tyrosine-protein kinase TYK2 (Homo sapiens) (UniProt P29597)
[43] = tested on: Receptor-type tyrosine-protein kinase FLT3 (Homo sapiens), P36888 [R834Q]
[44] = target: Discoidin domain-containing receptor 2 (Homo sapiens) (UniProt Q16832)
[45] = target: Tyrosine-protein kinase Tec (Homo sapiens) (UniProt P42680)

## CS(=O)(=O)c1cc(C2(NC(=O)c3cncc4c3cnn4-c3ccc(F)cc3)CC2)ccn1 [BI 639667]
[1]
  residual activity: 98%
[2]
  residual activity: 85%
[3]
  residual activity: 74%
[4]
  residual activity: 34%
[5]
  residual activity: 100%
[6]
  residual activity: 100%
[7]
  residual activity: 100%
[8]
  residual activity: 100%
[9]
  residual activity: 100%
[10]
  residual activity: 100%
[11]
  residual activity: 63%
[12]
  residual activity: 98%
[13]
  residual activity: 100%
[14]
  residual activity: 81%
[15]
  residual activity: 100%
[16]
  residual activity: 65%
[17]
  residual activity: 100%
[18]
  residual activity: 97%
[19]
  residual activity: 100%
[20]
  residual activity: 100%
[21]
  residual activity: 100%
[22]
  residual activity: 97%
[23]
  residual activity: 86%
[24]
  residual activity: 87%
[25]
  residual activity: 99%
[26]
  residual activity: 98%
[27]
  residual activity: 100%
[28]
  residual activity: 83%
[29]
  residual activity: 73%
[30]
  residual activity: 100%
[31]
  residual activity: 100%
[32]
  residual activity: 100%
[33]
  residual activity: 98%
[34]
  residual activity: 96%
[35]
  residual activity: 100%
[36]
  residual activity: 94%
[37]
  residual activity: 80%
[38]
  residual activity: 100%
[39]
  residual activity: 100%
[40]
  residual activity: 76%
[41]
  residual activity: 100%
[42]
  residual activity: 100%
[43]
  residual activity: 75%
[44]
  residual activity: 100%
[45]
  residual activity: 99%

## CS(=O)(=O)NCC[C@H](NC(=O)c1cncc2c1cnn2-c1ccc(F)cc1)c1ccnc(S(C)(=O)=O)c1 [BI 9307]
[1]
  residual activity: 85%
[2]
  residual activity: 93%
[3]
  residual activity: 82%
[4]
  residual activity: 50%
[5]
  residual activity: 100%
[6]
  residual activity: 100%
[7]
  residual activity: 96%
[8]
  residual activity: 94%
[9]
  residual activity: 100%
[10]
  residual activity: 82%
[11]
  residual activity: 99%
[12]
  residual activity: 83%
[13]
  residual activity: 90%
[14]
  residual activity: 100%
[15]
  residual activity: 99%
[16]
  residual activity: 100%
[17]
  residual activity: 97%
[18]
  residual activity: 100%
[19]
  residual activity: 100%
[20]
  residual activity: 100%
[21]
  residual activity: 100%
[22]
  residual activity: 100%
[23]
  residual activity: 83%
[24]
  residual activity: 88%
[25]
  residual activity: 100%
[26]
  residual activity: 100%
[27]
  residual activity: 100%
[28]
  residual activity: 98%
[29]
  residual activity: 100%
[30]
  residual activity: 100%
[31]
  residual activity: 100%
[32]
  residual activity: 100%
[33]
  residual activity: 100%
[34]
  residual activity: 100%
[35]
  residual activity: 100%
[36]
  residual activity: 94%
[37]
  residual activity: 85%
[38]
  residual activity: 100%
[39]
  residual activity: 91%
[40]
  residual activity: 100%
[41]
  residual activity: 100%
[42]
  residual activity: 100%
[43]
  residual activity: 79%
[44]
  residual activity: 100%
[45]
  residual activity: 96%
